{
  "source": "patent US12550923B2",
  "about": "“Allulose syrups” (Tate & Lyle Solutions USA LLC, priority 2015, dated 2026)",
  "test": "Crystallization stability of seeded allulose syrups",
  "assay_type": "physicochemical",
  "details": "25° C.",
  "protocol": "Allulose syrups were prepared at 50, 60, 71, 77, and 85% DS and were equilibrated at 25° C., 15° C. and 4° C. These samples were seeded with ˜0.1% crystalline allulose and crystallization was monitored visually and by change in dry solids of the syrup fraction after 1 month of storage.\nA change in DS greater than 0 indicates crystallization, and a larger number indicates a larger amount of crystallization. […] Therefore, for storage of a crystallization stable syrup at ambient and reduced temperatures, 77% solids or less is desirable. For cool (<25° C.) temperatures, 71% solids or less is more desirable.",
  "data": [
    {"smiles": "O=C(CO)C(O)C(O)C(O)CO", "note": "(stereo not shown) [allulose]", "values": [
      {"measurement": "limit of solubility (DS)", "result": "~77", "unit": "%"}
    ]}
  ]
}
